“Also recorded” adds a separate entry of the source.
Tests used:
[1] = test system: patient diagnosed with LMNA-related DCM; experiment: Treatment of patient diagnosed with LMNA-related dilated cardiomyopathy (case report); assay type: in vivo, human; details: for patient's condition: carvedilol 25 mg twice daily with eplerenone 25 mg once daily, before colchicine
Description: In August of 2013 patient […] was diagnosed with LMNA-related DCM, also known as “cardiac laminopathy,” an inherited degenerative cardiac disorder characterized by left ventricular dilation, arrhythmia, and cardiac enlargement. It is a subset of “non-ischemic cardiomyopathy.”
The patient worked as a college professor and the patient's condition worsened throughout the 2013-14 school year. The patient was heading toward long-term disability due to fatigue, shortness of breath and palpitations, all due to their progressive heart failure. In October, an implantable defibrillator was placed in the patient's chest, and the patient was hospitalized twice for cardiac arrhythmias (i.e., once for excessive premature ventricular contractions or TVCs′, and once for cardiac resynchronization for atrial fibrillation). Because conventional heart failure therapy appeared unsuccessful at ameliorating disease effects, the patient undertook a comprehensive review of literature on laminopathy to find a novel treatment.
In June 2014, the patient began experiencing PVC-burden cardiomyopathy, a secondary myopathy caused by a heavy premature ventricular contraction (PVC) load. Their PVCs were measured at 52,000 over a 48-hour holter-monitor. Given their deteriorating condition, now with NYHA class III heart failure, they sought care at Northwestern University's Bluhm Cardiovascular Institute in Chicago with Dr. Jane Wilcox.
Dr. Wilcox adjusted the patient's existing medication regimen to reflect best practice for treating dilated cardiomyopathy. The patient began taking 25 mg twice daily of carvedilol, as well as 25 mg once daily of eplerenone.
In January 2015, the patient underwent an unsuccessful procedure to ablate cardiac tissue causing their PVC burden. Their heart ejection fraction (EF), previously measured at 55%, was now measured at 45%. Later that month, the patient was hospitalized for Sotalol (antiarrhythmic drug) initiation. Sotalol was also unsuccessful in treating the patient's PVCs.
The patient had been very symptomatic with PVC's and could tell when his they were having PVC's.
Further, the patient was now considered to have NYHA class I heart failure symptoms and able to resume all previous activities, including running and biking, whereas previously the patient was NYHA class III (i.e., heart failure symptoms with mild activity).
As of July 2016, the patient stopped taking Sotalol because it seemed superfluous in respect to the patient's carvedilol regimen, and the patient has continued to be NYHA class I (i.e. asymptomatic).

LMNA cells = details: laboratory studies, reference 4 (Larrieu et al.); cited from earlier work
[2] = cited from earlier work
[3] = test system: familial Mediterranean fever (FMF); details: long-term use; reference 3; cited from earlier work

For `CC(C)NCC(O)c1ccc(NS(C)(=O)=O)cc1` (stereo not drawn) [Sotalol], which “treatment of the patient's PVCs” value ([1]; January 2015, before colchicine) is on record?
Its value is “unsuccessful”.

With `COc1ccccc1OCCNCC(O)COc1cccc2[nH]c3ccccc3c12` (stereo not drawn) [carvedilol] as the compound, how does the “patient's condition” value [1] read?
Its value is “continued to deteriorate”.

Which “reason for ceasing drug (potassium levels)” value ([1]; March 2016) does the source give for `COC(=O)[C@@H]1CC2=CC(=O)CC[C@]2(C)[C@@]23O[C@@H]2C[C@@]2(C)[C@@H](CC[C@@]24CCC(=O)O4)[C@H]13` [eplerenone] here?
Its value is “elevated potassium levels”.

And the “patient's condition” value [1]?
The value was “continued to deteriorate”.

For `COc1cc2c(c(OC)c1OC)-c1ccc(OC)c(=O)cc1[C@@H](NC(C)=O)CC2` [colchicine], which “nuclear shape defects characteristic of LMNA cells” value (LMNA cells) is on record?
The value was “rescue nuclear shape defects”.

And the “toxicity with P-gp or strong CYP3A4 inhibitors” value ([2]; patients with renal or hepatic impairment, colchicine taken in therapeutic doses)?
Its value is “life-threatening and fatal colchicine toxicity”.

And the “frequency of agranulocytosis, thrombocytopenia, aplastic anemia, leukopenia, granulocytopenia, pancytopenia (hematologic, rare)” value ([2]; reported adverse reactions)?
Its value is “less than 0.1%”.

And the “frequency of alopecia (dermatologic, rare)” value ([2]; reported adverse reactions)?
The value was “less than 0.1%”.

And the “frequency of azoospermia, oligospermia (genitourinary, rare)” value ([2]; reported adverse reactions)?
The value was “less than 0.1%”.

What about the “frequency of myopathy, rhabdomyolysis, elevated CPK, myotonia, muscle weakness, muscle pain (musculoskeletal, rare)” value ([2]; reported adverse reactions) of the same compound?
The value was “less than 0.1%”.

And the “frequency of pharyngolaryngeal pain (respiratory, common)” value ([2]; reported adverse reactions)?
The value was 3%.

What about the negative side effects ([1]; 1.8 mg colchicine twice daily (3.6 mg total dose), monitored for myelosuppression) of the same compound?
Its negative side effects is “no negative side effects; also recorded: has not experienced negative side effects”.

And the “NYHA class of heart failure symptoms” value ([1]; August 2015, previously NYHA class III)?
The value was “NYHA class I”.

What about the “improvement in cardiac output, measured non-invasively using LVOT velocity time integral (VTI)” value ([1]; August 2015 echocardiogram, colchicine started early 2015) of the same compound?
The value was 20%.

What about the “ventricular remodeling (left ventricular size and volume)” value ([1]; February 2016 echocardiogram) of the same compound?
Its value is “positive ventricular remodeling”.

And the “cardiac output (LVOT)” value ([1]; February 2016 echocardiogram, LVOT initially was 15)?
The value was 22.

What about the ejection fraction ([1]; February 2016 echocardiogram, improvement from 40-45%) of the same compound?
Its ejection fraction is 55%.

And the “NYHA class of heart failure symptoms” value ([1]; as of July 2016, after stopping eplerenone and Sotalol)?
The value was “NYHA class I”.

What about the “general condition / overall health of the patient” value ([1]; on colchicine, at higher doses than typically used for gout) of the same compound?
The value was “dramatic recovery; also recorded: continued to improve”.

And the PVC volume ([1]; within 48 hours of colchicine administration, patient with LMNA-related DCM)?
The PVC volume was “diminished considerably”.

And the “treatment of FMF (preventing attacks, reduction of symptoms, prevention and treatment of amyloidosis)” value [3]?
Its value is “very effective”.

— patent US10213397B2, “Microtubule polymerization modulators for treating LMNA-related dilated cardiomyopathy” (priority 2016, dated 2019)
